Measurements: patent US20210094954A1, “PREPARATION METHODS AND APPLICATIONS OF 3,5-DISUBSTITUTED METHYLPYRAZOLO[1,5-A]PYRIMIDINE-7-HYDROXYLIC SALTS” (priority 2019, published 2021)
Read-outs that look alike come from different tables or passages of the source.

How the values were obtained:
[1] = system: Staphylococcus aureus 43300 (MRSA); assay: antibacterial study in vivo, survival of infected kunming mice; conditions: for Survival days: 30 days of observation
Bacillus cereus 2 = assay: microbe, parasite or virus in culture; assay type: cell-based; conditions: Bacillus cereus, 2; 37° C., 24 hours; read-out: MIC values of in vitro antibacterial test results
Bacillus subtilis 168 = assay: microbe, parasite or virus in culture; assay type: cell-based; conditions: Bacillus subtilis, 168; 37° C., 24 hours; read-out: MIC values of in vitro antibacterial test results
[2] = system: Enterococcus faecalis 29212; assay: microbe, parasite or virus in culture; assay type: cell-based; conditions: Enterococcus faecalis, 29212; 37° C., 24 hours; read-out: MIC values of in vitro antibacterial test results
[3] = system: Enterococcus faecalis F2518(VRE); assay: microbe, parasite or virus in culture; assay type: cell-based; conditions: Enterococcus faecalis, VRE, 24 h, read-out: MIC values of in vitro antibacterial test results
[4] = system: Staphylococcus aureus 29231; assay: microbe, parasite or virus in culture; assay type: cell-based; conditions: Staphylococcus aureus, 29231; 37° C., 24 hours; read-out: MIC values of in vitro antibacterial test results
[5] = system: Staphylococcus aureus 43300(MRSA); assay: microbe, parasite or virus in culture; assay type: cell-based; conditions: Staphylococcus aureus, MRSA
[6] = system: Staphylococcus aureus 703(MRSA); assay: microbe, parasite or virus in culture; assay type: cell-based; conditions: Staphylococcus aureus, MRSA
[7] = system: Streptococcus pneumoniae 6303 (PRSP); assay: microbe, parasite or virus in culture; assay type: cell-based; conditions: Streptococcus pneumoniae, PRSP, 24 h, read-out: MIC values of in vitro antibacterial test results
[8] = system: Streptococcus pneumoniae M2; assay: microbe, parasite or virus in culture; assay type: cell-based; conditions: Streptococcus pneumoniae, M2; 37° C., 24 hours; read-out: MIC values of in vitro antibacterial test results
[9] = system: Streptococcus agalactia B group; assay: microbe, parasite or virus in culture; assay type: cell-based; conditions: Streptococcus; 37° C., 24 hours; read-out: MIC values of in vitro antibacterial test results
[10] = system: Streptococcus pneumoniae 10351; assay: microbe, parasite or virus in culture; assay type: cell-based; conditions: Streptococcus pneumoniae, 10351; 37° C., 24 hours; read-out: MIC values of in vitro antibacterial test results
[11] = system: Bacillus anthracis Bacillus 1; assay: microbe, parasite or virus in culture; assay type: cell-based; conditions: Bacillus anthracis, 24 h, read-out: MIC values of in vitro antibacterial test results
Diphtheria bacilli = assay: organism not typed; assay type: cell-based; conditions: 37° C., 24 hours; read-out: MIC values of in vitro antibacterial test results
Clostridium perfringens = assay: microbe, parasite or virus in culture; assay type: cell-based; conditions: Clostridium perfringens, 24 h, read-out: MIC values of in vitro antibacterial test results
Oral Candida = assay: microbe, parasite or virus in culture; assay type: cell-based; conditions: Candida
Peel fungus = assay: organism not typed; assay type: cell-based; conditions: 37° C., 24 hours; read-out: MIC values of in vitro antibacterial test results
[12] = system: F2518(VRE), Staphylococcus aureus resistant strain 43300(MRSA), 703 (MRSA), pneumococcal resistance bacteria 6303(PRSP); assay: microbe, parasite or virus in culture; assay type: cell-based; conditions: read-out: MIC values (μM)
[13] = 24 h, read-out: MIC values of in vitro antibacterial test results
[14] = 37° C., 24 hours, read-out: MIC values of in vitro antibacterial test results

Structure (SMILES)	MIC (Bacillus cereus 2)	MIC (Bacillus subtilis 168)	MIC [2]	MIC [3]	MIC [4]	MIC [5, 13]	MIC [6, 13]	MIC [7]	MIC [8]	MIC [9]	MIC [10]	MIC [11]	MIC (Diphtheria bacilli)	MIC (Clostridium perfringens)	MIC (Oral Candida; [14])	MIC (Peel fungus)	MIC [12]	MIC (Oral Candida; read-out: MIC values (μM))	further results
O=C(O)c1cn(C2CC2)c2cc(N3CCNCC3)c(F)cc2c1=O [Ciprofloxacin, reference compound]																			Survival days ([1]; dosage 20 mg/kg): 3.4 days; Life extension rate (%) ([1]; dosage 20 mg/kg, versus blank group): 161.5%
Cc1nn2c([O-])cc(-c3ccc([N+](=O)[O-])cc3)nc2c1-c1ccc(F)cc1F.[Na+] [Compound 3, Sodium 3-(2,4-difluorophenyl)-2-methyl-5-(4-nitrophenyl) pyrazolo[1,5-α]pyrimidin-7-olate]	< 100 µg/mL	< 100 µg/mL	< 100 µg/mL	< 150 µg/mL	< 100 µg/mL	< 50 µg/mL	< 50 µg/mL	< 100 µg/mL	< 100 µg/mL	> 150 µg/mL	< 100 µg/mL	> 150 µg/mL	> 150 µg/mL	> 150 µg/mL	> 150 µg/mL	> 150 µg/mL	< 100 µg/mL		MIC ([5]; read-out: MIC values (μM)): < 50 µg/mL; MIC ([6]; read-out: MIC values (μM)): < 50 µg/mL; Survival days ([1]; dosage 30 mg/kg): 4.0 days
Cc1nn2c([O-])cc(-c3ccc(N(C)C)cc3)nc2c1-c1ccc(F)cc1F.[Na+] [Compound 5, Sodium 3-(2,4-difluorophenyl)-5-(4-(dimethylamino)phenyl)-2-methylpyrazolo[1,5-α]pyrimidin-7-olate]	< 150 µg/mL	> 150 µg/mL	< 150 µg/mL	< 150 µg/mL	> 150 µg/mL	< 150 µg/mL	< 150 µg/mL	> 150 µg/mL	< 100 µg/mL	> 150 µg/mL	> 150 µg/mL	> 150 µg/mL	> 150 µg/mL	> 150 µg/mL	< 100 µg/mL	< 150 µg/mL		< 100 µg/mL	Survival days ([1]; dosage 30 mg/kg): 2.6 days
Cc1nn2c([O-])cc(-c3ccc([N+](=O)[O-])cc3)nc2c1-c1ccc(F)cc1F.[K+] [Compound 23, Potassium 3-(2,4-difluorophenyl)-2-methyl-5-(4-nitrophenyl)pyrazolo[1,5-α]pyrimidin-7-olate]	< 100 µg/mL	> 150 µg/mL	< 150 µg/mL	< 150 µg/mL	> 150 µg/mL	< 100 µg/mL	< 150 µg/mL	> 150 µg/mL	< 100 µg/mL	> 150 µg/mL	> 150 µg/mL	> 150 µg/mL	> 150 µg/mL	> 150 µg/mL	< 100 µg/mL	< 150 µg/mL	< 100 µg/mL	< 100 µg/mL	
Cc1nn2c([O-])cc(-c3ccc(N(C)C)cc3)nc2c1-c1ccc(F)cc1F.[K+] [Compound 24, Potassium 3-(2,4-difluorophenyl)-5-(4-(dimethylamino)phenyl)-2-methylpyrazolo[1,5-α]pyrimidin-7-olate]	< 100 µg/mL	< 100 µg/mL	< 100 µg/mL	< 150 µg/mL	< 100 µg/mL	< 150 µg/mL	< 100 µg/mL	< 150 µg/mL	< 100 µg/mL	> 150 µg/mL	< 100 µg/mL	> 150 µg/mL	> 150 µg/mL	< 150 µg/mL	< 100 µg/mL	< 150 µg/mL	< 100 µg/mL	< 100 µg/mL	
Cc1nn2c([O-])cc(-c3ccc(S(N)(=O)=O)cc3)nc2c1-c1ccc(F)cc1F.[K+] [Compound 25, Potassium 3-(2,4-difluorophenyl)-2-methyl-5-(4-sulfamoylphenyl)pyrazolo[1,5-α]pyrimidin-7-olate]	< 150 µg/mL	> 150 µg/mL	< 150 µg/mL	< 150 µg/mL	> 150 µg/mL	< 150 µg/mL	< 150 µg/mL	> 150 µg/mL	< 100 µg/mL	> 150 µg/mL	> 150 µg/mL	> 150 µg/mL	> 150 µg/mL	> 150 µg/mL	< 100 µg/mL	< 150 µg/mL	< 100 µg/mL	< 100 µg/mL	
Cc1nn2c([O-])cc(-c3ccc(C(F)(F)F)nc3)nc2c1-c1ccc(F)cc1F.[K+] [Compound 26, Potassium 3-(2,4-difluorophenyl)-2-methyl-5-(6-(trifluoromethyl)pyridin-3-yl)pyrazolo[1,5-α]pyrimidin-7-olate]	< 100 µg/mL	< 100 µg/mL	< 100 µg/mL	< 150 µg/mL	< 100 µg/mL	< 100 µg/mL	< 100 µg/mL	< 150 µg/mL	< 150 µg/mL	< 150 µg/mL	< 150 µg/mL	> 150 µg/mL	> 150 µg/mL	> 150 µg/mL	< 100 µg/mL	< 150 µg/mL	< 100 µg/mL	< 100 µg/mL	
Cc1nn2c([O-])cc(-c3ccc(C#N)nc3)nc2c1-c1ccc(F)cc1F.[K+] [Compound 27, Potassium 5-(6-cyanopyridin-3-yl)-3-(2,4-difluorophenyl)-2-methylpyrazolo[1,5-α]pyrimidin-7-olate]	< 100 µg/mL	< 100 µg/mL	< 100 µg/mL	< 150 µg/mL	< 100 µg/mL	< 150 µg/mL	< 100 µg/mL	< 100 µg/mL	< 100 µg/mL	> 150 µg/mL	< 100 µg/mL	> 150 µg/mL	< 150 µg/mL	< 150 µg/mL	< 100 µg/mL	> 150 µg/mL	< 100 µg/mL	< 100 µg/mL	
Cc1nn2c([O-])cc(-c3ccc(S(N)(=O)=O)nc3)nc2c1-c1ccc(F)cc1F.[Na+] [Compound 29, Sodium 3-(2,4-difluorophenyl)-2-methyl-5-(6-sulfamoylpyridin-3-yl)pyrazolo[1,5-α]pyrimidin-7-olate]	< 150 µg/mL	> 150 µg/mL	< 150 µg/mL	< 150 µg/mL	> 150 µg/mL	< 100 µg/mL	< 150 µg/mL	> 150 µg/mL	< 100 µg/mL	> 150 µg/mL	> 150 µg/mL	> 150 µg/mL	> 150 µg/mL	> 150 µg/mL	< 100 µg/mL	< 150 µg/mL	< 100 µg/mL	< 100 µg/mL	
Cc1nn2c([O-])cc(-c3ccc(C(=O)NCCN(C)C)cc3)nc2c1-c1ccc(F)cc1F.[Na+] [Compound 31, Sodium 3-(2,4-difluorophenyl)-5-(4-((2-(dimethylamino)ethyl)carbamoyl)phenyl)-2-methylpyrazolo[1,5-α]pyrimidin-7-olate]	< 100 µg/mL	< 100 µg/mL	< 100 µg/mL	< 150 µg/mL	< 100 µg/mL	< 150 µg/mL	< 100 µg/mL	< 100 µg/mL	< 100 µg/mL	> 150 µg/mL	< 100 µg/mL	> 150 µg/mL	> 150 µg/mL	> 150 µg/mL	< 100 µg/mL	> 150 µg/mL	< 100 µg/mL	< 100 µg/mL	
Cc1nn2c([O-])cc(-c3ccc(C(N)=O)nc3)nc2c1-c1ccc(F)cc1F.[Na+] [Compound 32]	< 100 µg/mL	> 150 µg/mL	< 150 µg/mL	< 150 µg/mL	> 150 µg/mL	< 100 µg/mL	< 150 µg/mL	< 150 µg/mL	< 100 µg/mL	> 150 µg/mL	> 150 µg/mL	> 150 µg/mL	> 150 µg/mL	> 150 µg/mL	< 100 µg/mL	< 150 µg/mL	< 100 µg/mL	< 100 µg/mL	
CC(=O)Oc1ccc(-c2cc([O-])n3nc(C)c(-c4ccc(F)cc4F)c3n2)cn1.[Na+] [Compound 33, Sodium 5-(6-acetoxypyridin-3-yl)-3-(2,4-difluorophenyl)-2-methylpyrazolo[1,5-α]pyrimidin-7-olate]	< 100 µg/mL	> 150 µg/mL	< 100 µg/mL	< 150 µg/mL	> 150 µg/mL	< 100 µg/mL	< 150 µg/mL	> 150 µg/mL	< 100 µg/mL	> 150 µg/mL	> 150 µg/mL	> 150 µg/mL	> 150 µg/mL	> 150 µg/mL	< 150 µg/mL	< 150 µg/mL	< 100 µg/mL	< 100 µg/mL	
